What was measured:
[1] = target: B-Raf V600E (Homo sapiens, UniProt P15056, V600E); assay: Kinase activity assay, B-Raf V600E; format: biochemical; conditions: read-out: activity toward kinase B-Raf V600E, IC50
[2] = target: Btk (Homo sapiens, UniProt Q06187); assay: Kinase activity assay, Btk
[3] = target: Fms (Homo sapiens, UniProt P07333); assay: Kinase activity assay, Fms
[4] = target: Kdr (Homo sapiens, UniProt P35968); assay: Kinase activity assay, Kdr
[5] = target: Kit (Homo sapiens, UniProt P10721); assay: Kinase activity assay, Kit
Chain of Kit (P10721 26-976): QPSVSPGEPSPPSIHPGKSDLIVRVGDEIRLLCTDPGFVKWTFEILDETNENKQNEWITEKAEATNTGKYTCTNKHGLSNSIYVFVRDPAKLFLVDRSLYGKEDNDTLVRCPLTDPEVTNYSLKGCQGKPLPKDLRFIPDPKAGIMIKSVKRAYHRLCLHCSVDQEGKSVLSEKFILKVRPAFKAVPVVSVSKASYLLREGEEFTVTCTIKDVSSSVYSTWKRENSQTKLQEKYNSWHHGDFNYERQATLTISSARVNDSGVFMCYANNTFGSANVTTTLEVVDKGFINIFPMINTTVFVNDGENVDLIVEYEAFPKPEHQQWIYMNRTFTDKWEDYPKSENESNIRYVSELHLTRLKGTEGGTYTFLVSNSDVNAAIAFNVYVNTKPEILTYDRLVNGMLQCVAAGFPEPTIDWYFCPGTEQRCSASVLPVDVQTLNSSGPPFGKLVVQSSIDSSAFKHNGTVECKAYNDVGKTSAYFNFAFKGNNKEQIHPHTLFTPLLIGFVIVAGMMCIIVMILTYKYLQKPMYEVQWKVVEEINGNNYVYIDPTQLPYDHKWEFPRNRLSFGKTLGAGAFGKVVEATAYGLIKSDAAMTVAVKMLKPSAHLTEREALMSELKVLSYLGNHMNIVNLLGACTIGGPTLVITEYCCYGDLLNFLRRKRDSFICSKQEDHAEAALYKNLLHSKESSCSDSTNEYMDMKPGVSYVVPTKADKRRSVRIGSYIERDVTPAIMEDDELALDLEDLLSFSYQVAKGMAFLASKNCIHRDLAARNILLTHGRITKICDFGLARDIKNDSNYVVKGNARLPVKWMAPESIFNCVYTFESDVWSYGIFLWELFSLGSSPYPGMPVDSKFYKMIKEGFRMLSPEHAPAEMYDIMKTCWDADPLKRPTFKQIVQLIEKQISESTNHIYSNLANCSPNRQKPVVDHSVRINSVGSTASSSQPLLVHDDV

[6] = target: T1, TEC (Homo sapiens, UniProt P42680); assay: Kinase activity assay, TEC
T1 sequence (P42680 1-631): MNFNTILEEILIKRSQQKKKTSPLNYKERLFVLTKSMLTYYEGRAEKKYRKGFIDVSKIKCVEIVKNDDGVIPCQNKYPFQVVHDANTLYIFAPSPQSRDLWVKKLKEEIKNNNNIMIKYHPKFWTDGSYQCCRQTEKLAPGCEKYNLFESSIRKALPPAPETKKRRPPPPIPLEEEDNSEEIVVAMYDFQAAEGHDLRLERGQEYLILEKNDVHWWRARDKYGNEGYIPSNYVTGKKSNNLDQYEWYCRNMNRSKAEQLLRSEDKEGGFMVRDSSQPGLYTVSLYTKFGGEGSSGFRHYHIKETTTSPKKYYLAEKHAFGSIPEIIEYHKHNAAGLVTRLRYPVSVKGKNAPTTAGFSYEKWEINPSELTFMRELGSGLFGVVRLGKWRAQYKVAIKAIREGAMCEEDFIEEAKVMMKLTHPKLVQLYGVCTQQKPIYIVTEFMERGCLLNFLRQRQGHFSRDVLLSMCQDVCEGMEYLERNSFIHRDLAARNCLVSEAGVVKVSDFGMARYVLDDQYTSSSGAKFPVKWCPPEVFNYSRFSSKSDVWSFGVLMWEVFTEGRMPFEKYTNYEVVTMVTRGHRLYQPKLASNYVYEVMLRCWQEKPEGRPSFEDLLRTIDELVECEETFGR

[7] = target: Src (Homo sapiens, UniProt P12931); assay: Kinase activity assay, Src
Chain of Src (P12931 whole entry): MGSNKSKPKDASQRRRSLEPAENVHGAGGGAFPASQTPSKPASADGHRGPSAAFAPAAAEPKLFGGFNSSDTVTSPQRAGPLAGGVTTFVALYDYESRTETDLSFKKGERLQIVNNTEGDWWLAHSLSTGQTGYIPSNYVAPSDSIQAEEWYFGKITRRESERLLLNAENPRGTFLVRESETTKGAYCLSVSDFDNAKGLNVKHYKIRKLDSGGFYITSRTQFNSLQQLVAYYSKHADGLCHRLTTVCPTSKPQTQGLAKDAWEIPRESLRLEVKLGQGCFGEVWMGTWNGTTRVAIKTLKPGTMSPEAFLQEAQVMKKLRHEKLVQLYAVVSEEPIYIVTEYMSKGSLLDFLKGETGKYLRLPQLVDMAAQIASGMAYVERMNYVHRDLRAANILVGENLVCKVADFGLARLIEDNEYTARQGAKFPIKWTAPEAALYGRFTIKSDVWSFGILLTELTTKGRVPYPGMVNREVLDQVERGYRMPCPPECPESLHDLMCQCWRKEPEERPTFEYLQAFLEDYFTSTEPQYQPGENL

[8] = target: B-Raf (Homo sapiens, UniProt P15056); assay: Kinase activity assay, B-Raf; format: biochemical; conditions: read-out: activity toward kinase B-Raf, IC50
Chain of B-Raf (P15056 whole entry): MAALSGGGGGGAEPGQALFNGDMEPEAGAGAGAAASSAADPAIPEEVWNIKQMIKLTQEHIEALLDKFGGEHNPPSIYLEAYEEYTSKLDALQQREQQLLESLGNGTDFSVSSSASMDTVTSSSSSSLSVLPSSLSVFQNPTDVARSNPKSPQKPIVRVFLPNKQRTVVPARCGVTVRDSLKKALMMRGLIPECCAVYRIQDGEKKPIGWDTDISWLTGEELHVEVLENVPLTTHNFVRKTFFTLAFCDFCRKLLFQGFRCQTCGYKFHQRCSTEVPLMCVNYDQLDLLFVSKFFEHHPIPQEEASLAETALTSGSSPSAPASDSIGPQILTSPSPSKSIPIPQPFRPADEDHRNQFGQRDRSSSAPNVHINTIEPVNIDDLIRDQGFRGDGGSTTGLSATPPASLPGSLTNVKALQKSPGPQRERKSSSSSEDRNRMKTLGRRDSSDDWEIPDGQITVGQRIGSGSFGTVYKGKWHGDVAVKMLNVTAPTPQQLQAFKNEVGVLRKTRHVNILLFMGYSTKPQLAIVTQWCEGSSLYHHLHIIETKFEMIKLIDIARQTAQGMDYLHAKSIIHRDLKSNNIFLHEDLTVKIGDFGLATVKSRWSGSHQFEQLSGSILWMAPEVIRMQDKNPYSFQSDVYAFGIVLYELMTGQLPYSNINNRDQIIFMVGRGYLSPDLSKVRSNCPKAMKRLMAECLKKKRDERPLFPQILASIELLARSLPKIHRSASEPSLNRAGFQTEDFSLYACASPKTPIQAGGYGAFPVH

[9] = target: C-Raf (Homo sapiens, UniProt P04049); assay: Kinase activity assay, C-Raf
Chain of C-Raf (P04049 whole entry): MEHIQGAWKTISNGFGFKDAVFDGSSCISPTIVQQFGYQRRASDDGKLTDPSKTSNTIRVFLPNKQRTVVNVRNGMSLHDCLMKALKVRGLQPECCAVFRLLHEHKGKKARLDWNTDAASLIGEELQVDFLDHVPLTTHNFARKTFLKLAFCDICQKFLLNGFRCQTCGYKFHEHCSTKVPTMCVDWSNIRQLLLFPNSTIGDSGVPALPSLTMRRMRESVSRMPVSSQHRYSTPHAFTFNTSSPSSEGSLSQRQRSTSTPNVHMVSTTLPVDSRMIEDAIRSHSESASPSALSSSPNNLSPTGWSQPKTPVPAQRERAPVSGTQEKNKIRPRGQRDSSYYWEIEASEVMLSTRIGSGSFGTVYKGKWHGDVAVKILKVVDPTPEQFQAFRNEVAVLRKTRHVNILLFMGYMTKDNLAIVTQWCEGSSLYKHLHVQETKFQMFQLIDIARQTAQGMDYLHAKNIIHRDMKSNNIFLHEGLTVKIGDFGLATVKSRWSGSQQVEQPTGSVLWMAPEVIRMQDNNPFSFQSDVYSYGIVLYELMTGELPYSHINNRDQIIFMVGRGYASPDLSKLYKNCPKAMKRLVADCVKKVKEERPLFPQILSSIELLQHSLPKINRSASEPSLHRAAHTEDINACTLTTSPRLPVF

[10] = target: MAP4K4 (Homo sapiens, UniProt O95819); assay: Kinase activity assay, MAP4K4

Measured: IC50

Chain of Btk (Q06187 whole entry): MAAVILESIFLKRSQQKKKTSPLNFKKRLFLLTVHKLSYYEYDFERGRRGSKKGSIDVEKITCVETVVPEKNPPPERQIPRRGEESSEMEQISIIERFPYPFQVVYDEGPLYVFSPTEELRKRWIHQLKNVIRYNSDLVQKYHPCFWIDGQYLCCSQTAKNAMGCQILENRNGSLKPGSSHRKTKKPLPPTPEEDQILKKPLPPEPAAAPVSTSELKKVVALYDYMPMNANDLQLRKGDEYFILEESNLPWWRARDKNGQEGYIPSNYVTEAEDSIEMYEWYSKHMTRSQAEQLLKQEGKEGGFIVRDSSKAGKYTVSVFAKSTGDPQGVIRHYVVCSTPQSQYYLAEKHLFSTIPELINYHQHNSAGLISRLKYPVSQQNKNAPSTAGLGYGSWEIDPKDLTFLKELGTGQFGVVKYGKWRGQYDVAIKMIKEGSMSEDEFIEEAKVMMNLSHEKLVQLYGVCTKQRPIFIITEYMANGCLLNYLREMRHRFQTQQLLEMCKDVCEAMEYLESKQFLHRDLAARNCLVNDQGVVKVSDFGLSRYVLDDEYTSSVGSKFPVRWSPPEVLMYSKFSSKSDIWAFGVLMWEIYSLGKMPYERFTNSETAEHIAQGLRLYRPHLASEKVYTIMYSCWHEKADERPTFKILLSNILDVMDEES
Chain of Kdr (P35968 20-1356): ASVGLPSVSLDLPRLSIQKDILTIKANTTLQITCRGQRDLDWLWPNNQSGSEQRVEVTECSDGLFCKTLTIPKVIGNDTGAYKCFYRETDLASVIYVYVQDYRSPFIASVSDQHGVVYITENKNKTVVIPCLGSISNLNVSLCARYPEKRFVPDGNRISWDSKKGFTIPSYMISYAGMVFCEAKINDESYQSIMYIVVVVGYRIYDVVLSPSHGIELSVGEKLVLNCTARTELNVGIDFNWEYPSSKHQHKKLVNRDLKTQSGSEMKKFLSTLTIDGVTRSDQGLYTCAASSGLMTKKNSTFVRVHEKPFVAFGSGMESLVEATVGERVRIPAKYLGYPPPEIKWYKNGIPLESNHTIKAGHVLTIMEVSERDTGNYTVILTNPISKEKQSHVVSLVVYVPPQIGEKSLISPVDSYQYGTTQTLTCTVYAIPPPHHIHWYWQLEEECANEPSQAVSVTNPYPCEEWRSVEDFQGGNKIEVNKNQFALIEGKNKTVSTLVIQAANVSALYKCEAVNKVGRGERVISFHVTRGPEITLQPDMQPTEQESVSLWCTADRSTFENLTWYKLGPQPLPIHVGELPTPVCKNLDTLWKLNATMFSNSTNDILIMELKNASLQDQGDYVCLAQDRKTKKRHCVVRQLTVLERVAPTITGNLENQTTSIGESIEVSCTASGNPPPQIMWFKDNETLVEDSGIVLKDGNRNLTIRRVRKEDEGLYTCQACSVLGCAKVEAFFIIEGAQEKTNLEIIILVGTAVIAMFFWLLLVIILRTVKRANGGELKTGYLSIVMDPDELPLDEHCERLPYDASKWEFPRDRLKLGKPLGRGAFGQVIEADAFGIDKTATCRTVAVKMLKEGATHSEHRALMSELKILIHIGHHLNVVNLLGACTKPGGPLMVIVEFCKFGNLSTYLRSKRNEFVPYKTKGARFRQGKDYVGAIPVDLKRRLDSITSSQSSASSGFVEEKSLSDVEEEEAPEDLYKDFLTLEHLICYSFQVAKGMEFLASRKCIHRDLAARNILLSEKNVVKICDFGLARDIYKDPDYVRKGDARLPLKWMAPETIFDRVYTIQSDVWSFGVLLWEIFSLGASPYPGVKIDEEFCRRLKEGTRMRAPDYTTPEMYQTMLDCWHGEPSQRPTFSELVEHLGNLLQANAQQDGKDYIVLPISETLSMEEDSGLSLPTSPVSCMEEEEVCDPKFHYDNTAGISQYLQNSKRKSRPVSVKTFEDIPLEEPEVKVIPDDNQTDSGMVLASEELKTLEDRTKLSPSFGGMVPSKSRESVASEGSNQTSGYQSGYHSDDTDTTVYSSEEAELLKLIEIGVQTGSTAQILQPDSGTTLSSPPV
Chain of B-Raf V600E (P15056 whole entry V600E): as the sequence (P15056 whole entry) above, with V600E counted along it

Cn1cc(-c2cnc3[nH]cc(C(=O)c4cccc(NS(=O)(=O)c5ccc(F)cc5)c4)c3c2)cn1 [P-2130, 4-Fluoro-N-{3-[5-(1-methyl-1H-pyrazol-4-yl)-1H-pyrrolo[2,3-b]pyridine-3-carbonyl]-phenyl}-benzenesulfonamide]
≤ 10 µM: [1] | [2] | [3] | [4] | [5] | [6]

Cn1cc(-c2cnc3[nH]cc(C(=O)c4cccc(NS(=O)(=O)c5cccc(C(F)(F)F)c5)c4)c3c2)cn1 [P-2131, N-{3-[5-(1-Methyl-1H-pyrazol-4-yl)-1H-pyrrolo[2,3-b]pyridine-3-carbonyl]-phenyl}-3-trifluoromethyl-benzenesulfonamide]
≤ 10 µM: [1] | [2] | [3] | [4] | [5] | [6]

Cn1cc(-c2cnc3[nH]cc(C(=O)c4cccc(NS(=O)(=O)c5cccc(Cl)c5)c4)c3c2)cn1 [P-2134, 3-Chloro-N-{3-[5-(1-methyl-1H-pyrazol-4-yl)-1H-pyrrolo[2,3-b]pyridine-3-carbonyl]-phenyl}-benzenesulfonamide]
≤ 10 µM: [1] | [2] | [3] | [4] | [5] | [6]

Cn1cc(-c2cnc3[nH]cc(C(=O)c4cccc(NS(=O)(=O)c5cccc(F)c5)c4)c3c2)cn1 [P-2136, 3-Fluoro-N-{3-[5-(1-methyl-1H-pyrazol-4-yl)-1H-pyrrolo[2,3-b]pyridine-3-carbonyl]-phenyl}-benzenesulfonamide]
≤ 10 µM: [1] | [2] | [3] | [4] | [5] | [6]

CCCS(=O)(=O)Nc1ccc(F)c(C(=O)c2c[nH]c3ncc(-c4ccc(NC(C)=O)cc4)cc23)c1F [P-2161, N-(4-{3-[2,6-Difluoro-3-(propane-1-sulfonylamino)-benzoyl]-1H-pyrrolo[2,3-b]pyridin-5-yl}-phenyl)-acetamide]
not listed: [8] | [9] | [10]
≤ 10 µM: all other assays above

CCCS(=O)(=O)Nc1ccc(F)c(C(=O)c2c[nH]c3ncc(-c4cnn(CCN5CCOCC5)c4)cc23)c1F [P-2177, Propane-1-sulfonic acid (2,4-difluoro-3-{5-[1-(2-morpholin-4-yl-ethyl)-1H-pyrazol-4-yl]-1H-pyrrolo[2,3-b]pyridine-3-carbonyl}-phenyl)-amide]
not listed: [9] | [10]
≤ 10 µM: all other assays above

CCS(=O)(=O)Nc1ccc(F)c(C(=O)c2c[nH]c3ncc(-c4cnn(C)c4)cc23)c1F [P-2271, Ethanesulfonic acid {2,4-difluoro-3-[5-(1-methyl-1H-pyrazol-4-yl)-1H-pyrrolo[2,3-b]pyridine-3-carbonyl]-phenyl}-amide]
not listed: [9] | [10]
≤ 10 µM: all other assays above

CCC(C)S(=O)(=O)Nc1ccc(F)c(C(=O)c2c[nH]c3ncc(OC)cc23)c1F (stereo not drawn) [P-2308, Butane-2-sulfonic acid [2,4-difluoro-3-(5-methoxy-1H-pyrrolo[2,3-b]pyridine-3-carbonyl)-phenyl]-amide]
not listed: [3] | [5] | [8]
≤ 10 µM: all other assays above

Cn1cc(-c2cnc3[nH]cc(C(=O)c4c(F)ccc(NS(=O)(=O)C5CC5)c4F)c3c2)cn1 [P-2352, Cyclopropanesulfonic acid {2,4-difluoro-3-[5-(1-methyl-1H-pyrazol-4-yl)-1H-pyrrolo[2,3-b]pyridine-3-carbonyl]-phenyl}-amide]
not listed: [9] | [10]
≤ 10 µM: all other assays above

CCCS(=O)(=O)Nc1cccc(C(=O)c2c[nH]c3ncc(-c4cnn(C)c4)cc23)c1 [P-2454, Propane-1-sulfonic acid {3-[5-(1-methyl-1H-pyrazol-4-yl)-1H-pyrrolo[2,3-b]pyridine-3-carbonyl]-phenyl}-amide]
≤ 10 µM: [1] | [2] | [3] | [4] | [5] | [6]

CCCCS(=O)(=O)Nc1cccc(C(=O)c2c[nH]c3ncc(-c4cnn(C)c4)cc23)c1 [P-2455, Butane-1-sulfonic acid {3-[5-(1-methyl-1H-pyrazol-4-yl)-1H-pyrrolo[2,3-b]pyridine-3-carbonyl]-phenyl}-amide]
≤ 10 µM: [1] | [2] | [3] | [4] | [5] | [6]

CS(=O)(=O)c1cccc(-c2cnc3[nH]cc(C(=O)c4cccc(NS(=O)(=O)C5CCCCC5)c4)c3c2)c1 [P-2461, Cyclohexanesulfonic acid {3-[5-(3-methanesulfonyl-phenyl)-1H-pyrrolo[2,3-b]pyridine-3-carbonyl]-phenyl}-amide]
≤ 10 µM: [2] | [3] | [4] | [5] | [6] | [10]

COc1cnc2[nH]cc(C(=O)c3cccc(NS(=O)(=O)C4CCCC4)c3)c2c1 [P-2464, Cyclopentanesulfonic acid [3-(5-methoxy-1H-pyrrolo[2,3-b]pyridine-3-carbonyl)-phenyl]-amide]
not listed: [7] | [8] | [9]
≤ 10 µM: all other assays above

O=C(c1cc(NS(=O)(=O)N2CCCCC2)ccc1F)c1c[nH]c2ncc(Cl)cc12 [P-2468, Piperidine-1-sulfonic acid [3-(5-chloro-1H-pyrrolo[2,3-b]pyridine-3-carbonyl)-4-fluoro-phenyl]-amide]
≤ 10 µM: [1] | [2] | [3] | [4] | [5] | [6]
